Test results as given in PubChem BioAssay (NCI).
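Interpolation was linear, between the two tested concentrations surrounding the appropriate level; five concentrations were tested over 48 hours in 96-well plates. Here, GI50 denotes the concentration required for 50% inhibition of growth. TGI: total growth inhibition.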

Assays:
Experiment in all cases: inhibition of tumour cell growth, NCI panel, 48 h
SF-539 CNS = test system: SF-539 CNS
RXF 393 renal = test system: RXF 393 renal
UACC-257 melanoma = test system: UACC-257 melanoma
HL-60(TB) leukemia = test system: HL-60(TB) leukemia
SNB-75 CNS = test system: SNB-75 CNS
A498 renal = test system: A498 renal
OVCAR-4 ovarian = test system: OVCAR-4 ovarian
RPMI-8226 leukemia = test system: RPMI-8226 leukemia
HCT-116 colon = test system: HCT-116 colon
MCF7 breast = test system: MCF7 breast

Structure (SMILES) | TGI (SF-539 CNS) [µM] | TGI (RXF 393 renal) [µM] | TGI (UACC-257 melanoma) [µM] | TGI (HL-60(TB) leukemia) [µM] | TGI (SNB-75 CNS) [µM] | TGI (A498 renal) [µM] | TGI (OVCAR-4 ovarian) [µM] | TGI (RPMI-8226 leukemia) [µM] | TGI (HCT-116 colon) [µM] | TGI (MCF7 breast) [µM] | GI50 (SF-539 CNS) [µM] | GI50 (HCT-116 colon) [µM] | GI50 (RXF 393 renal) [µM] | GI50 (UACC-257 melanoma) [µM] | GI50 (MCF7 breast) [µM] | GI50 (OVCAR-4 ovarian) [µM] | GI50 (RPMI-8226 leukemia) [µM] | GI50 (SNB-75 CNS) [µM] | GI50 (A498 renal) [nM] | GI50 (HL-60(TB) leukemia) [µM]
O=C1CCC2(c3ccccc3)Nc3ncccc3N12 (centres undefined) | > 100 | > 100 | > 100 | > 100 | > 100 | > 100 | > 100 | > 100 |  |  |  |  |  |  |  |  |  |  |  | 
COC(=O)c1cc(-c2cccn2C)c2c(c1C(=O)OC)c1ccccc1n2C | > 100 | > 100 | > 100 | > 100 | > 100 |  | > 100 | > 100 |  |  |  |  |  |  |  |  |  |  |  | 
CCC(/C=C/c1ccccc1)=N\Nc1ccc(Cl)c(Cl)c1 | 66.1 | 58.4 | > 100 | 72.5 | > 100 |  |  | 50.1 | > 100 | > 100 |  |  |  |  |  |  |  |  |  | 
CC(=O)NC1CC2Oc3ccc(C)cc3C(C)(O2)C1O (centres undefined) | > 100 | > 100 | > 100 | > 100 | > 100 |  |  | > 100 | > 100 |  |  |  |  |  |  |  |  |  |  | 
CC1CCC(C(C)C)C(O[C@@H]2OC(=O)C[C@@H]2Sc2ccccc2)C1 (some centres undefined) | 61.8 | 31.9 | 39.3 | 43.6 | 98.3 | 74.7 | 41.9 | 34.7 | 74 |  |  |  |  |  |  |  |  |  |  | 
COc1cc(C)c(O)c(C(=O)O)c1 |  | > 100 | > 100 |  | > 100 | > 100 | > 100 |  | > 100 |  |  |  |  |  |  |  |  |  |  | 
CC(=O)Nc1ccc(/C=C/C(=O)c2sc(-c3nc(C)c(C(=O)/C=C/c4ccc(NC(C)=O)cc4)s3)nc2C)cc1 | > 100 | > 100 | > 100 | > 100 |  |  | > 100 |  | > 100 |  |  |  |  |  |  |  |  |  |  | 
CCOC(=O)c1nc(-c2ccccc2)oc1OCC | > 100 | > 100 |  | > 100 | > 100 |  | > 100 | > 100 | > 100 |  |  |  |  |  |  |  |  |  |  | 
CCOC(=O)C1=C(Nc2cccc3ccccc23)OC/C1=N\NC(=O)c1ccccc1O | 46.8 | > 37.5 | 77.1 | 37.8 | 39.5 | 70.6 | > 59.1 | > 100 | > 69.6 |  |  |  |  |  |  |  |  |  |  | 
Nc1c(C(=O)Nc2ccccc2)sc2nc3c(cc12)CN(Cc1ccccc1)CC3 | > 100 | 54.3 | > 100 |  |  |  | 23.1 | > 100 | > 100 | > 100 | 2.78 | 11 | 3.15 | 52.8 | 12.1 | 1.97 | 55.8 |  |  | 
COC(=O)C1=C(OC(=O)c2ccc(Cl)cc2)C(C(=O)OC)[C@@]2(O)[C@@H](C(=O)OC)C(c3ccccc3Cl)C[C@@H]1[C@@H]2C(=O)OC (some centres undefined) | 61 | 6.96 | 22.4 |  | 30.3 | 13.2 |  | > 100 | > 100 | > 100 | 12.4 | 3.17 | 2.23 | 3.52 | 5.47 |  | 8.79 | 5.05 | 2810 | 
O=C(Nc1nc(=S)c2c(ncn2CCO)[nH]1)c1ccccc1 | > 100 | > 100 | > 100 | > 100 | > 100 | > 100 | > 100 | > 100 | > 100 |  |  |  |  |  |  |  |  |  |  | 
COC(=O)C1=C(C(=O)OC)SC(=C(N=Nc2ccccc2)c2ccccc2)S1 | > 100 |  | > 100 | > 100 | > 100 | > 100 | > 100 | > 100 | > 100 |  |  |  |  |  |  |  |  |  |  | 
O=C(CCc1cc(-c2ccccc2)nc(=S)[nH]1)Nc1ccccc1[N+](=O)[O-] | > 100 | > 100 | > 100 | > 100 | > 100 | > 100 |  | > 100 | > 100 |  |  |  |  |  |  |  |  |  |  | 
C=CCC(OCCOCC)c1cc(OCCOCC)ccc1OC (centres undefined) | > 100 | > 100 | > 100 | > 100 | > 100 |  | > 100 | > 100 |  |  |  |  |  |  |  |  |  |  |  | 
COC(=O)C1=C(O)c2cc3c(cc2[C@H](c2cc(OC)c(OC)c(OC)c2)C1C(=O)OC)OCO3 (some centres undefined) | > 100 | 73.4 | > 100 | > 100 | 66 | > 100 | 83 | > 100 | > 100 |  |  |  |  |  |  |  |  |  |  | 
CS/C(C)=N/OC(=O)NCCCCNc1ccc(N=[N+]=[N-])cc1 | > 100 | > 100 | > 100 |  | > 100 | > 100 | > 100 | > 100 | > 100 |  |  |  |  |  |  |  |  |  |  | 
O=C(COc1cccc(/C=C2\COc3ccc(Cl)cc3C2=O)c1)c1ccc(Cl)cc1 | 28.7 |  | 33.4 | 31.5 | 22.2 | 27.1 | 31.5 | 5.14 | 11.3 | 4.76 | 15.4 | 3.28 |  | 18.5 | 1.25 | 14.9 | 2 | 4.73 | 13800 | 8.99
COc1cc(/C=C/C(=O)c2sc(NNC(C)=O)nc2C)ccc1O | > 100 | > 100 | > 100 | > 100 | > 100 | > 100 |  | > 100 |  |  |  |  |  |  |  |  |  |  |  | 
C[C@@H](NC1CCC[C@H]1O)c1ccccc1 (some centres undefined) |  | > 100 | > 100 | > 100 | > 100 |  | > 100 | > 100 | > 100 |  |  |  |  |  |  |  |  |  |  | 
CSc1ccccc1C#Cc1ccccc1C#CCCCCO | 27.2 | 17.5 | 34.2 |  | 28 | 14.3 | 37.3 | 46.6 | 31.4 | 39.2 | 13.5 | 14 | 3.86 | 18.5 | 19.1 | 17.7 | 6.79 | 13.8 | 2240 | 
O=C1NC2C=CN(Cc3ccccc3)C=C2C(=O)N2CCCC12 (centres undefined) | > 100 | > 100 | > 100 | > 100 | > 100 | > 100 | > 100 |  | > 100 |  |  |  |  |  |  |  |  |  |  | 
